Data taken from the supplement of paper PMC10307832.

Assays:
Experiment in all cases: relative viability (nuclei count vs DMSO), 5 days (fraction); higher = more cells survive
[1] = compound: C1CN(CCN1)C2=CC=C(C=C2)C3=CN4C(=C(C=N4)C5=CC=NC6=CC=CC=C56)N=C3 [DM3189] + O=C(c1cc(Cc2n[nH]c(=O)c3ccccc23)ccc1F)N1CCN(C(=O)C2CC2)CC1 [Olaparib] (partner 8 µM)
How it was run: (§1)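 A single step with final 0.05% Triton X-100, 1% formaldehyde and 1 ug/ml Hoechst fixed the cells and stained nuclei 5 days after treatment. Lung cancer cell lines in 1536-well plates had been treated by pin tool the day after seeding with one drug alone or a fixed anchor-drug dose plus five library-drug doses (not always all listed) in √10 steps, and nuclei were counted on 4× images. Relative viability is the ratio of nuclei in treated wells to nuclei in vehicle wells, taken as the median of duplicate plates.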

[2] = compound: C1CN(CCN1)C2=CC=C(C=C2)C3=CN4C(=C(C=N4)C5=CC=NC6=CC=CC=C56)N=C3 [DM3189] + Cc1nc(Nc2ncc(C(=O)Nc3c(C)cccc3Cl)s2)cc(N2CCN(CCO)CC2)n1 [Dasatinib] (partner 0.075 µM)
How it was run: as §1

[3] = compound: C1CN(CCN1)C2=CC=C(C=C2)C3=CN4C(=C(C=N4)C5=CC=NC6=CC=CC=C56)N=C3 [DM3189] + O=C(CCCCCCC(=O)Nc1ccccc1)NO [Vorinostat] (partner 1 µM)
How it was run: as §1

[4] = compound: C1CN(CCN1)C2=CC=C(C=C2)C3=CN4C(=C(C=N4)C5=CC=NC6=CC=CC=C56)N=C3 [DM3189] + C[C@]1(O)C[C@@H](c2nc(-c3ccc4ccc(-c5ccccc5)nc4c3)c3c(N)nccn32)C1 [Linsitinib] (partner 1 µM)
How it was run: as §1

[5] = compound: C1CN(CCN1)C2=CC=C(C=C2)C3=CN4C(=C(C=N4)C5=CC=NC6=CC=CC=C56)N=C3 [DM3189] + Cc1cc(Nc2cc(N3CCN(C)CC3)nc(Sc3ccc(NC(=O)C4CC4)cc3)n2)n[nH]1 [Tozasertib] (partner 0.1 µM)
How it was run: as §1

| Cell Line | relative viability ([1]; first compound 0.08 µM) | relative viability ([1]; first compound 0.253 µM) | relative viability ([1]; first compound 0.8 µM) | relative viability ([1]; first compound 2.53 µM) | relative viability ([2]; first compound 0.08 µM) | relative viability ([2]; first compound 0.253 µM) | relative viability ([2]; first compound 0.8 µM) | relative viability ([2]; first compound 2.53 µM) | relative viability ([3]; first compound 0.08 µM) | relative viability ([3]; first compound 0.253 µM) | relative viability ([3]; first compound 0.8 µM) | relative viability ([3]; first compound 2.53 µM) | relative viability ([4]; first compound 0.08 µM) | relative viability ([4]; first compound 0.253 µM) | relative viability ([4]; first compound 0.8 µM) | relative viability ([4]; first compound 2.53 µM) | relative viability ([5]; first compound 0.08 µM) | relative viability ([5]; first compound 0.253 µM) | relative viability ([5]; first compound 0.8 µM) | relative viability ([5]; first compound 2.53 µM) |
| --- | --- | --- | --- | --- | --- | --- | --- | --- | --- | --- | --- | --- | --- | --- | --- | --- | --- | --- | --- | --- |
| NCI-H1651 | 0.191 | 0.179 | 0.168 | 0.177 | 0.386 | 0.571 | 0.58 | 0.462 | 0.657 | 0.587 | 0.549 | 0.629 | 1.09 | 1.02 | 1.21 | 0.991 | 0.704 | 0.722 | 0.628 | 0.649 |
| NCI-H1666 | 0.714 | 0.682 | 0.691 | – | 0.884 | 0.862 | 0.925 | 0.715 | 1.04 | 1.02 | 1.09 | – | 0.861 | 0.808 | 0.842 | 1.04 | 0.602 | 0.648 | 0.737 | 0.565 |
| NCI-H1734 | 0.61 | 0.588 | 0.563 | 0.63 | 0.476 | 0.46 | 0.499 | 0.414 | 0.842 | 0.805 | 0.718 | 0.59 | 1.01 | 0.981 | 0.814 | 0.968 | 0.28 | 0.266 | 0.228 | 0.22 |
| NCI-H1755 | 0.821 | 0.831 | 0.717 | 0.922 | 0.429 | 0.401 | 0.388 | 0.411 | 0.771 | 0.659 | 0.695 | 0.685 | 1.02 | 0.911 | 0.881 | 0.934 | 0.475 | 0.493 | 0.453 | 0.524 |
| NCI-H1793 | 0.998 | 0.943 | 0.702 | 1.15 | 0.423 | 0.368 | 0.371 | 0.361 | 0.993 | 0.633 | 0.911 | 1.12 | 1.09 | 0.997 | 0.937 | 1.21 | 0.33 | 0.321 | 0.294 | 0.357 |
| NCI-H1915 | 0.264 | 0.253 | 0.222 | 0.231 | 0.46 | 0.317 | 0.289 | 0.286 | 0.49 | 0.508 | 0.383 | 0.482 | 1.12 | 1.05 | 0.928 | 1.11 | 0.455 | 0.431 | 0.402 | 0.404 |
| NCI-H1944 | 0.385 | 0.405 | 0.35 | 0.378 | 0.232 | 0.217 | – | 0.219 | 0.592 | 0.567 | 0.467 | 0.565 | 1.26 | 1.19 | – | 1.21 | 0.275 | 0.273 | – | 0.267 |
| NCI-H1975 | 0.952 | 0.777 | 0.646 | 0.639 | 0.421 | 0.357 | 0.314 | 0.332 | 0.803 | 0.732 | 0.701 | 0.687 | 1.18 | 0.955 | 0.929 | 0.727 | 0.652 | 0.693 | 0.649 | 0.541 |
| NCI-H1993 | 1.05 | 1.13 | 1.02 | 1.13 | 0.657 | 0.552 | 0.505 | 0.504 | 0.856 | 0.803 | 0.813 | 0.854 | – | 0.616 | 0.641 | 0.706 | 0.58 | 0.584 | 0.554 | 0.637 |
| NCI-H2009 | 0.894 | 0.645 | 0.638 | 0.689 | 0.287 | 0.267 | 0.263 | 0.244 | 0.705 | 0.647 | 0.733 | 0.888 | 1.24 | 1.21 | 1.11 | 1.29 | 0.678 | 0.69 | 0.67 | 0.673 |
| NCI-H2023 | 0.486 | 0.432 | 0.515 | 0.333 | 0.781 | 0.595 | 0.363 | 0.46 | 0.688 | 0.618 | 0.603 | 0.604 | 0.683 | 0.694 | 0.496 | 0.667 | 0.442 | 0.304 | 0.259 | 0.266 |
| NCI-H2085 | 0.735 | 0.804 | 0.804 | 0.883 | 0.28 | 0.274 | 0.318 | 0.28 | 0.87 | 0.742 | 0.795 | 0.906 | 0.932 | 0.858 | 0.973 | 0.946 | 0.903 | 0.747 | 0.898 | 0.951 |
| NCI-H2087 | 0.511 | 0.563 | 0.505 | 0.316 | 0.97 | 0.77 | 0.784 | 0.768 | 0.63 | 0.49 | 0.682 | 0.471 | 1.06 | 0.909 | 1.11 | 0.969 | 0.248 | 0.277 | 0.264 | 0.162 |
| NCI-H2126 | 0.99 | 0.89 | 0.896 | 0.991 | 0.742 | 0.568 | 0.446 | 0.503 | 0.998 | 0.769 | 0.742 | 0.705 | 0.708 | 0.799 | 0.779 | 0.799 | 0.823 | 0.767 | 0.739 | 0.803 |
| NCI-H2228 | 0.88 | 0.669 | 0.492 | 0.51 | 0.577 | 0.41 | 0.545 | 0.245 | 0.541 | 0.773 | 0.593 | 0.279 | 0.68 | 0.763 | 0.572 | 0.66 | 0.236 | 0.207 | 0.227 | 0.156 |
| NCI-H2347 | 0.544 | 0.53 | 0.522 | 0.55 | 0.261 | 0.384 | 0.341 | 0.284 | 0.554 | 0.626 | 0.61 | 0.658 | 0.98 | 1 | 0.907 | 0.97 | 0.464 | 0.475 | 0.521 | 0.515 |
| NCI-H2405 | 0.919 | 0.858 | 0.781 | 0.793 | 0.215 | 0.204 | 0.201 | 0.214 | 1.16 | 1 | 0.942 | 0.992 | 0.909 | 0.922 | 0.792 | 0.878 | 0.791 | 0.7 | 0.741 | 0.692 |
| NCI-H3122 | 0.698 | 0.606 | 0.545 | 0.73 | 0.853 | 0.639 | 0.757 | 0.708 | 0.992 | 0.74 | 0.841 | 1.11 | 0.939 | 0.907 | 0.876 | 0.933 | 0.38 | 0.35 | 0.333 | 0.382 |
| PC-3 [JPC-3] | 1.17 | 1.11 | 1.08 | 1.05 | 1.12 | 1.07 | 1.16 | 0.966 | 1.08 | 0.736 | 0.921 | 0.898 | 0.975 | 0.91 | 0.972 | 1.06 | 0.84 | 0.968 | 0.848 | 0.774 |
| PC-14 | 0.277 | 0.238 | 0.264 | 0.226 | 0.295 | 0.239 | 0.159 | 0.16 | 0.733 | 0.7 | 0.674 | 0.533 | 1.03 | 0.953 | 0.903 | 0.879 | 0.547 | 0.522 | 0.567 | 0.606 |
| RERF-LC-KJ | 0.942 | 0.889 | 0.823 | 0.833 | 1.03 | 0.891 | 0.744 | 0.943 | 0.858 | 0.729 | 0.661 | 0.715 | 0.932 | 0.879 | 0.861 | 0.978 | 0.533 | 0.456 | 0.466 | 0.43 |
| SK-LU-1 | 0.449 | 0.398 | 0.35 | 0.372 | 0.143 | 0.109 | 0.104 | 0.136 | 0.742 | 0.749 | 0.728 | 0.598 | 0.888 | 0.688 | 0.667 | 0.524 | 0.241 | 0.204 | 0.248 | 0.219 |
| SK-MES-1 | 0.679 | 0.546 | 0.594 | 0.348 | 0.322 | 0.263 | 0.265 | 0.237 | 1.34 | 1.01 | 0.787 | 0.875 | 1.11 | 0.981 | 0.97 | 0.944 | 0.901 | 0.831 | 0.687 | 0.87 |
| SW 1573 | 0.543 | 0.449 | 0.441 | 0.106 | 0.741 | 0.389 | 0.46 | 0.382 | 0.786 | 0.761 | 0.633 | 0.337 | 0.887 | 0.771 | 0.626 | 0.738 | 0.212 | 0.171 | 0.142 | 0.153 |
| UMC-11 | 0.395 | 0.37 | 0.35 | 0.458 | 0.467 | 0.429 | 0.467 | 0.401 | 0.356 | 0.349 | 0.358 | 0.281 | 1.09 | 0.986 | 1.03 | 0.959 | 0.189 | 0.201 | 0.199 | 0.21 |
